Measured values from US11713335B2, “Aminocoumarin compounds and methods of their use” (President and Fellows of Harvard College, priority 2018, dated 2023).
In brackets after ≈: the same amount, converted by molar mass. Like-named read-outs stand apart in the source and are kept apart here.

Experiments:
[1] = tested on: E. coli 25922; test: Minimal inhibitory concentration, E. coli 25922; assay type: cell-based; conditions: 16 hour minimal inhibitory concentration at 37° C., read-out: MIC (μM) E. coli 25922
Outline: (§1)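 MICs (µM) correspond to the lowest concentration stopping bacterial growth, judged by visible-light absorbance at 600 nm following a 16 h static incubation at 37 °C. Compounds were titrated twofold into doubly 1:100-diluted saturated cultures.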

[2] = tested on: K. pneumoniae 700721; test: Minimal inhibitory concentration, K. pneumoniae 700721; assay type: cell-based; conditions: 16 hour minimal inhibitory concentration at 37° C., read-out: MIC (μM) K. pneumoniae 700721
Outline: as §1

[3] = tested on: A. baumannii 19606; test: Minimal inhibitory concentration, A. baumannii 19606; assay type: cell-based; conditions: 16 hour minimal inhibitory concentration at 37° C., read-out: MIC (μM) A. baumannii 19606
Outline: as §1

[4] = tested on: S. aureus RN4220; test: Minimal inhibitory concentration, S. aureus RN4220; assay type: cell-based; conditions: 16 hour minimal inhibitory concentration at 37° C., read-out: MIC (μM) S. aureus RN4220
Outline: as §1

[5] = tested on: E. cloacae 13047; test: Minimal inhibitory concentration, E. cloacae 13047; assay type: cell-based; conditions: 16 hour minimal inhibitory concentration at 37° C., read-out: MIC (μM) E. cloacae 13047
Outline: as §1

[6] = tested on: S. aureus MW2; test: Minimal inhibitory concentration, S. aureus MW2; assay type: cell-based; conditions: 16 hour minimal inhibitory concentration at 37° C., read-out: MIC (μM) S. aureus MW2 (MRSA)
Outline: as §1

[7] = tested on: E. coli MC4100; test: Minimal inhibitory concentration, E. coli MC4100; assay type: cell-based; conditions: 16 hour minimal inhibitory concentration at 37° C., read-out: MIC (μM) E. coli MC4100 ara+
Outline: as §1

[8] = tested on: WT E. coli; test: Minimal inhibitory concentration in wild-type E. coli; assay type: cell-based, Escherichia coli; conditions: wild-type E. coli, 37° C., 16 hours, read-out: MIC (μM) in WT E. coli
Method: General Procedure for Determination of Minimal Inhibitory Concentrations
Overnight cultures (5 mL) of bacterial strains were grown in LB media or TSA media (for S. aureus) at 37° C. and with shaking at 220 rpm until saturation. The overnight culture was diluted serially 1:100 (50 μL in 5 mL sterile media) and then 1:100 (250 μL in 25 mL sterile media). The 25 mL of diluted culture was then dispensed to a sterile 96 well plate (Corning #3370). 198 μL of culture were dispensed into row A and 100 μL of this culture were dispensed into rows B-H. Aminocoumarin compound (DMSO stock) were added to the first row and then the row was mixed by pipetting. 100 μL of culture from row A were transferred to row B and the serial dilution continued until the final 100 μL from row H were discarded. The plate was incubated without shaking in a 37° C. for 16 hours and then read by visible light spectrophotometer (Molecular Devices) at 600 nm. The minimal inhibitory concentration (MIC) was determined as the lowest concentration of compound concentration that inhibited the growth of bacteria.

[9] = Acinetobacter baumannii, 19606, 16 h
[10] = Staphylococcus aureus, RN4220, 16 h
[11] = Staphylococcus aureus, MRSA, 16 h

| SMILES | MIC ([1]; Escherichia coli, 25922, 16 h) [µM] | MIC ([2]; Klebsiella pneumoniae, 700721) [µM] | MIC [3, 9] [µM] | MIC [4, 10] [µM] | MIC ([5]; Enterobacter cloacae, 13047) [µM] | MIC [6, 11] [µM] | MIC ([7]; Escherichia coli, MC4100, 16 h) [µM] | MIC ([8]; Escherichia coli) [µM] | MIC [1] [µM] | MIC [2] [µM] | MIC [3] [µM] | MIC [4] [µM] | MIC [5] [µM] | MIC [6] [µM] | MIC [7] [µM] | MIC [8] [µM] |
| --- | --- | --- | --- | --- | --- | --- | --- | --- | --- | --- | --- | --- | --- | --- | --- | --- |
| CO[C@@H]1[C@@H](OC(N)=O)[C@@H](O)[C@H](Oc2ccc3c(O)c(NC(=O)c4cccc(-c5ccc(N(C)C)cc5)c4)c(=O)oc3c2C)OC1(C)C [Compound 25] | > 200 | > 100 | 19 (≈ 12.3 µg/mL) | 0.96 (≈ 0.622 µg/mL) | > 100 | 0.96 (≈ 0.622 µg/mL) | > 200 | > 300 | – | – | – | – | – | – | – | – |
| CO[C@@H]1[C@@H](OC(N)=O)[C@@H](O)[C@H](Oc2ccc3c(O)c(NC(=O)c4cccc(S(F)(F)(F)(F)F)c4)c(=O)oc3c2C)OC1(C)C [Compound 26] | > 200 | > 100 | > 50 | > 100 | > 100 | > 100 | > 200 | > 300 | – | – | – | – | – | – | – | – |
| CO[C@@H]1[C@@H](OC(N)=O)[C@@H](O)[C@H](Oc2ccc3c(O)c(NC(=O)/C=C/c4ccccc4)c(=O)oc3c2C)OC1(C)C [Compound 27] | > 200 | > 100 | > 50 | 45 (≈ 25 µg/mL) | > 100 | 23 (≈ 12.8 µg/mL) | > 200 | > 300 | – | – | – | – | – | – | – | – |
| CO[C@@H]1[C@@H](OC(N)=O)[C@@H](O)[C@H](Oc2ccc3c(O)c(NC(=O)c4cccc(-c5ccc(F)cc5)c4)c(=O)oc3c2C)OC1(C)C [Compound 28] | 40 (≈ 24.9 µg/mL) | 80 (≈ 49.8 µg/mL) | > 50 | 5 (≈ 3.11 µg/mL) | 161 (≈ 100 µg/mL) | 5 (≈ 3.11 µg/mL) | 26 (≈ 16.2 µg/mL) | 26 (≈ 16.2 µg/mL) | – | – | – | – | – | – | – | – |
| CO[C@@H]1[C@@H](OC(N)=O)[C@@H](O)[C@H](Oc2ccc3c(O)c(NC(=O)c4cccc(-c5cccnc5)c4)c(=O)oc3c2C)OC1(C)C [Compound 29] | > 200 | > 100 | > 50 | 83 (≈ 50.3 µg/mL) | > 100 | 83 (≈ 50.3 µg/mL) | > 200 | > 300 | – | – | – | – | – | – | – | – |
| CO[C@@H]1[C@@H](OC(N)=O)[C@@H](O)[C@H](Oc2ccc3c(O)c(NC(=O)c4ccc(O)cc4)c(=O)oc3c2C)OC1(C)C [Compound 30] | > 200 | > 100 | > 50 | 46 (≈ 25 µg/mL) | > 100 | 46 (≈ 25 µg/mL) | > 200 | > 300 | – | – | – | – | – | – | – | – |
| CO[C@@H]1[C@@H](OC(N)=O)[C@@H](O)[C@H](Oc2ccc3c(O)c(NC(=O)c4cccc(-c5ccccn5)c4)c(=O)oc3c2C)OC1(C)C [Compound 31] | > 200 | > 100 | > 50 | 41 (≈ 24.8 µg/mL) | > 100 | 41 (≈ 24.8 µg/mL) | > 200 | > 300 | – | – | – | – | – | – | – | – |
| CO[C@@H]1[C@@H](OC(N)=O)[C@@H](O)[C@H](Oc2ccc3c(O)c(NC(=O)c4cccc(-c5ccncc5)c4)c(=O)oc3c2C)OC1(C)C [Compound 32] | > 200 | > 100 | > 50 | 83 (≈ 50.3 µg/mL) | > 100 | 41 (≈ 24.8 µg/mL) | > 200 | > 300 | – | – | – | – | – | – | – | – |
| CO[C@@H]1[C@@H](OC(N)=O)[C@@H](O)[C@H](Oc2ccc3c(O)c(NC(=O)c4cccc(-c5ccc(Cl)cc5)c4)c(=O)oc3c2C)OC1(C)C [Compound 33] | 20 (≈ 12.8 µg/mL) | > 100 | 39 (≈ 24.9 µg/mL) | 1.96 (≈ 1.25 µg/mL) | > 100 | 0.98 (≈ 0.626 µg/mL) | 18 (≈ 11.5 µg/mL) | 18 (≈ 11.5 µg/mL) | – | – | – | – | – | – | – | – |
| CO[C@@H]1[C@@H](OC(N)=O)[C@@H](O)[C@H](Oc2ccc3c(O)c(NC(=O)c4cccc(-c5ccc(I)cc5)c4)c(=O)oc3c2C)OC1(C)C [Compound 34] | 68 (≈ 49.7 µg/mL) | > 100 | 9 (≈ 6.57 µg/mL) | 0.43 (≈ 0.314 µg/mL) | > 100 | 0.43 (≈ 0.314 µg/mL) | 59 (≈ 43.1 µg/mL) | 59 (≈ 43.1 µg/mL) | – | – | – | – | – | – | – | – |
| CO[C@@H]1[C@@H](OC(N)=O)[C@@H](O)[C@H](Oc2ccc3c(O)c(NC(=O)c4cccc(Oc5ccccc5)c4)c(=O)oc3c2C)OC1(C)C [Compound 35] | 10 (≈ 6.21 µg/mL) | > 100 | > 50 | 40 (≈ 24.8 µg/mL) | > 100 | 20 (≈ 12.4 µg/mL) | 8 (≈ 4.96 µg/mL) | 8 (≈ 4.96 µg/mL) | – | – | – | – | – | – | – | – |
| CO[C@@H]1[C@@H](OC(N)=O)[C@@H](O)[C@H](Oc2ccc3c(O)c(NC(=O)c4cccc(-c5ccccc5F)c4)c(=O)oc3c2C)OC1(C)C [Compound 37] | 80 (≈ 49.8 µg/mL) | > 100 | > 50 | 10 (≈ 6.23 µg/mL) | > 100 | 10 (≈ 6.23 µg/mL) | 59 (≈ 36.7 µg/mL) | 59 (≈ 36.7 µg/mL) | – | – | – | – | – | – | – | – |
| CO[C@@H]1[C@@H](OC(N)=O)[C@@H](O)[C@H](Oc2ccc3c(O)c(NC(=O)c4cccc(-c5cccc(F)c5)c4)c(=O)oc3c2C)OC1(C)C [Compound 38] | 40 (≈ 24.9 µg/mL) | > 100 | > 50 | 5 (≈ 3.11 µg/mL) | > 100 | 10 (≈ 6.23 µg/mL) | 26 (≈ 16.2 µg/mL) | 26 (≈ 16.2 µg/mL) | – | – | – | – | – | – | – | – |
| CO[C@@H]1[C@@H](OC(N)=O)[C@@H](O)[C@H](Oc2ccc3c(O)c(NC(=O)c4cccc(-c5ccc6ccccc6c5)c4)c(=O)oc3c2C)OC1(C)C [Compound 39] | – | – | – | – | – | – | – | – | 153 (≈ 100 µg/mL) | >100 | 5 (≈ 3.27 µg/mL) | 0.19 (≈ 0.124 µg/mL) | >100 | 0.1 (≈ 0.0655 µg/mL) | >200 | >300 |
| CO[C@@H]1[C@@H](OC(N)=O)[C@@H](O)[C@H](Oc2ccc3c(O)c(NC(=O)c4ccccc4-c4ccccc4)c(=O)oc3c2C)OC1(C)C [Compound 40] | > 200 | > 100 | > 50 | 41 (≈ 24.8 µg/mL) | > 100 | 41 (≈ 24.8 µg/mL) | > 100 | > 300 | – | – | – | – | – | – | – | – |
| CO[C@@H]1[C@@H](OC(N)=O)[C@@H](O)[C@H](Oc2ccc3c(O)c(NC(=O)c4ccc(C5CCCCC5)cc4)c(=O)oc3c2C)OC1(C)C [Compound 41] | > 200 | > 100 | > 50 | 20 (≈ 12.2 µg/mL) | > 100 | 20 (≈ 12.2 µg/mL) | > 200 | > 300 | – | – | – | – | – | – | – | – |
| CO[C@@H]1[C@@H](OC(N)=O)[C@@H](O)[C@H](Oc2ccc3c(O)c(NC(=O)Cc4ccccc4)c(=O)oc3c2C)OC1(C)C [Compound 42] | – | – | – | – | – | – | – | – | >200 | >100 | >50 | >100 | >100 | >100 | >200 | >300 |
| CO[C@@H]1[C@@H](OC(N)=O)[C@@H](O)[C@H](Oc2ccc3c(O)c(NC(=O)CCc4ccccc4)c(=O)oc3c2C)OC1(C)C [Compound 43] | > 200 | > 100 | > 50 | > 100 | > 100 | > 100 | > 200 | > 300 | – | – | – | – | – | – | – | – |
| CO[C@@H]1[C@@H](OC(N)=O)[C@@H](O)[C@H](Oc2ccc3c(O)c(NC(=O)c4ccc(Oc5ccccc5)cc4)c(=O)oc3c2C)OC1(C)C [Compound 44] | – | – | – | – | – | – | – | – | >200 | >100 | >50 | 45 (≈ 27.9 µg/mL) | >100 | 40 (≈ 24.8 µg/mL) | >200 | >300 |
| COc1cccc(-c2cccc(C(=O)Nc3c(O)c4ccc(O[C@@H]5OC(C)(C)[C@H](OC)[C@@H](OC(N)=O)[C@H]5O)c(C)c4oc3=O)c2)c1 [Compound 45] | – | > 100 | – | – | > 100 | – | – | 89 (≈ 56.5 µg/mL) | 79 (≈ 50.1 µg/mL) | – | >50 | 5 (≈ 3.17 µg/mL) | – | 3 (≈ 1.9 µg/mL) | 89 (≈ 56.5 µg/mL) | – |
